PubChem BioAssay (NCI)
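These data come from cells grown in 96-well plates and exposed to compound for 48 hours at five concentrations. GI50: concentration for 50% inhibition of growth. Definition used: TGI = concentration required for complete inhibition of growth.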

How the values were obtained:
Assay in all cases: NCI anticancer screen, dose series, 48 h
[1] = tested on: HT29 colon
[2] = tested on: NCI/ADR-RES ovarian
[3] = tested on: SNB-19 CNS
[4] = tested on: TK-10 renal
[5] = tested on: 786-0 renal
[6] = tested on: NCI-H226 lung
[7] = tested on: SK-MEL-28 melanoma
[8] = tested on: RPMI-8226 leukemia
[9] = tested on: MALME-3M melanoma
[10] = tested on: UACC-62 melanoma

O=P(O)(O)CN1CCNCCN(CP(=O)(O)O)CCNCC1
TGI [1]: > 100 µM
TGI [2]: > 100 µM
TGI [3]: > 100 µM
TGI [4]: > 100 µM
TGI [5]: > 100 µM
TGI [6]: > 94.9 µM
TGI [7]: > 100 µM
TGI [8]: > 100 µM
TGI [9]: > 100 µM
TGI [10]: > 100 µM

COc1cc(-n2cc(-c3cc(O)c(C/C=C(\C)CCC=C(C)C)c(O)c3)nn2)cc2c1O[C@]1(C)CC[C@@H](O)C(C)(C)[C@H]1C2
GI50 [1]: 1.71 µM
TGI [1]: 5.81 µM
GI50 [2]: 3.51 µM
TGI [2]: 68.6 µM
GI50 [3]: 1.89 µM
TGI [3]: 40.3 µM
GI50 [4]: 7.97 µM
TGI [4]: > 100 µM
GI50 [6]: 5.98 µM
TGI [6]: 68.4 µM
GI50 [7]: 0.754 µM
TGI [7]: 27.6 µM
GI50 [8]: 0.0324 µM
TGI [8]: 0.475 µM
GI50 [9]: 1.38 µM
TGI [9]: 8.4 µM
GI50 [10]: 0.23 µM
TGI [10]: 2.98 µM

O=CNNC(=O)Nc1ccc(Cl)cc1
TGI [1]: > 100 µM
TGI [2]: > 100 µM
TGI [3]: > 100 µM
TGI [4]: > 100 µM
TGI [5]: > 100 µM
TGI [6]: > 100 µM
TGI [7]: > 100 µM
TGI [8]: > 100 µM
TGI [9]: > 100 µM
TGI [10]: > 100 µM

Cc1cc(S(=O)(=O)O)c(NC(=O)c2oc3cc(O)ccc3c(=O)c2C)cc1Cl
TGI [1]: > 100 µM
TGI [2]: > 100 µM
TGI [3]: > 100 µM
TGI [4]: > 100 µM
TGI [5]: > 100 µM
TGI [6]: > 100 µM
TGI [7]: > 100 µM
TGI [8]: > 100 µM
TGI [9]: > 100 µM
TGI [10]: > 100 µM

O=C1CSC2(CC(/C=C/c3ccccc3Br)=NN2c2cccc(S(=O)(=O)O)c2)N1c1nc2ccccc2s1 (stereo not given)
TGI [1]: > 100 µM
TGI [2]: > 100 µM
TGI [3]: > 100 µM
TGI [4]: > 100 µM
TGI [5]: > 100 µM
TGI [6]: > 100 µM
TGI [7]: > 100 µM
TGI [8]: > 100 µM
TGI [9]: > 100 µM
TGI [10]: > 100 µM

C=C1CC(Cn2cc(Br)c(=O)[nH]c2=O)(c2ccc(-c3ccccc3)cc2)OC1=O (stereo not given)
TGI [1]: 1.91 µM
TGI [2]: 4.82 µM
TGI [3]: 26.8 µM
TGI [4]: 0.842 µM
TGI [5]: 2.29 µM
TGI [6]: 4.31 µM
TGI [7]: 0.671 µM
TGI [8]: 0.574 µM
TGI [9]: 3.06 µM
TGI [10]: 2.45 µM

Oc1[nH]c2ccccc2c1/C=c1/cc2c(c(-c3ccc(C(F)(F)F)cc3)n1)=Nc1ccccc1-2
GI50 [1]: 3.16 µM
TGI [1]: 11.4 µM
GI50 [2]: 1.9 µM
TGI [2]: 18.8 µM
GI50 [3]: 6.81 µM
TGI [3]: > 100 µM
GI50 [4]: 5.54 µM
TGI [4]: 22.9 µM
GI50 [6]: 36.4 µM
TGI [6]: > 100 µM
GI50 [7]: 1.84 µM
TGI [7]: 18.8 µM
GI50 [8]: 2.93 µM
TGI [8]: 13.7 µM
GI50 [9]: 9.14 µM
TGI [9]: 27.4 µM
GI50 [10]: 6.32 µM
TGI [10]: 21.9 µM

c1ccc([P+](c2ccccc2)(c2ccccc2)c2ccc([P+](c3ccccc3)(c3ccccc3)c3ccccc3)cc2)cc1
TGI [1]: > 100 µM
TGI [2]: > 100 µM
TGI [3]: > 100 µM
TGI [4]: > 100 µM
TGI [5]: > 100 µM
TGI [6]: > 100 µM
TGI [7]: > 100 µM
TGI [8]: > 100 µM
TGI [9]: > 100 µM
TGI [10]: > 100 µM

Cc1ccc(S(=O)(=O)N/N=C2\C3CC4CC(C3)C2C4)cc1 (stereo not given)
TGI [1]: > 100 µM
TGI [2]: > 100 µM
TGI [3]: > 100 µM
TGI [4]: > 100 µM
TGI [5]: > 100 µM
TGI [6]: > 100 µM
TGI [7]: > 100 µM
TGI [8]: > 100 µM
TGI [9]: > 100 µM
TGI [10]: > 100 µM

COc1ccc(C=Nc2ccc(-c3nc4ccccc4[nH]3)cc2)cc1OC
TGI [1]: > 100 µM
TGI [2]: > 100 µM
TGI [3]: > 100 µM
TGI [4]: > 100 µM
TGI [5]: > 100 µM
TGI [6]: > 100 µM
TGI [7]: > 100 µM
TGI [8]: > 100 µM
TGI [9]: > 100 µM

COc1ccc(C(=O)c2ccc(-n3cc(/C=C/[N+](=O)[O-])c4ccccc43)cc2)cc1
TGI [1]: 57.3 µM
TGI [2]: 56.5 µM
TGI [3]: > 72.4 µM
TGI [4]: 16.8 µM
TGI [5]: 11.2 µM
TGI [6]: > 92.9 µM
TGI [7]: > 89.2 µM
TGI [8]: > 100 µM
TGI [9]: 46.8 µM
TGI [10]: 28.5 µM

O=C1OI(C#Cc2ccccc2)c2ccccc21
TGI [1]: 20.1 µM
TGI [2]: > 100 µM
TGI [3]: 21.8 µM
TGI [4]: 13.5 µM
TGI [5]: 11.2 µM
TGI [6]: 19 µM
TGI [7]: 21.2 µM
TGI [8]: 4.24 µM
TGI [9]: 5.64 µM
TGI [10]: 19.3 µM

CC(=O)c1ccc(NC(=O)CSc2nc(C)nc3c2sc(=S)n3-c2ccccc2)cc1
TGI [1]: > 3.16 µM
TGI [2]: > 3.16 µM
TGI [3]: > 3.16 µM
TGI [4]: > 3.16 µM
TGI [5]: > 3.16 µM
TGI [6]: > 3.16 µM
TGI [7]: > 3.16 µM
TGI [8]: > 3.16 µM
TGI [9]: > 3.16 µM
TGI [10]: > 3.16 µM

COC(=O)c1ccc(/C=C2\CCc3ccccc3C2=O)cc1
TGI [1]: > 100 µM
TGI [2]: > 100 µM
TGI [3]: > 100 µM
TGI [4]: > 100 µM
TGI [5]: > 100 µM
TGI [6]: > 100 µM
TGI [7]: > 100 µM
TGI [8]: > 100 µM
TGI [9]: > 100 µM
TGI [10]: > 100 µM

C/C(=N\Nc1ccccc1)C(CN(C)C)C(c1ccccc1)c1c(O)c2ccccc2oc1=O (stereo not given)
TGI [1]: > 100 µM
TGI [2]: > 100 µM
TGI [3]: > 100 µM
TGI [4]: > 100 µM
TGI [5]: > 100 µM
TGI [6]: > 100 µM
TGI [7]: > 100 µM
TGI [8]: > 100 µM
TGI [9]: > 100 µM
TGI [10]: > 100 µM

CC/C(Cl)=N\OC(=O)Nc1ccc(F)cc1F
TGI [1]: 51.2 µM
TGI [2]: 44.5 µM
TGI [3]: > 56.6 µM
TGI [4]: 24.3 µM
TGI [5]: 8.77 µM
TGI [6]: 34.2 µM
TGI [7]: 35.9 µM
TGI [8]: 3.57 µM
TGI [9]: 12 µM
TGI [10]: 32.3 µM

O=C1CC2(CCNCC2)C(=O)N1N1CCOCC1
TGI [1]: > 100 µM
TGI [2]: > 100 µM
TGI [3]: > 100 µM
TGI [4]: > 100 µM
TGI [5]: > 100 µM
TGI [6]: > 100 µM
TGI [7]: > 100 µM
TGI [8]: > 100 µM
TGI [9]: > 100 µM
TGI [10]: > 100 µM

CC(C)(C)OC(=O)N1CCc2c(n(C/C=C/c3ccccc3)[nH]c2=O)C1
TGI [1]: > 100 µM
TGI [2]: > 100 µM
TGI [3]: > 100 µM
TGI [4]: > 100 µM
TGI [5]: > 100 µM
TGI [6]: > 100 µM
TGI [7]: > 100 µM
TGI [8]: > 100 µM
TGI [9]: > 100 µM
TGI [10]: > 100 µM

O=C1C=C(N2CCN(c3ccccn3)CC2)C(=O)c2c(O)ccc(O)c21
TGI [1]: 31.2 µM
TGI [2]: 11.5 µM
TGI [3]: 78.6 µM
TGI [4]: 45.7 µM
TGI [5]: 42.9 µM
TGI [6]: > 56.2 µM
TGI [7]: > 56.2 µM
TGI [8]: 41.7 µM
TGI [9]: 1.63 µM
TGI [10]: 16.1 µM
